Like-named read-outs stand apart in the source and are kept apart here.
Experiments:
[1] = molecular target: T1, SENP1 (Homo sapiens, UniProt Q9P0U3); assay: In vitro deSUMOylation assay with recombinant His-JAK2 and GST-SENP1; type: biochemical; design: made in house; host or cells: E. coli BL21 (DE3) for pET28a-JAK2
T1 sequence (Q9P0U3 1-644): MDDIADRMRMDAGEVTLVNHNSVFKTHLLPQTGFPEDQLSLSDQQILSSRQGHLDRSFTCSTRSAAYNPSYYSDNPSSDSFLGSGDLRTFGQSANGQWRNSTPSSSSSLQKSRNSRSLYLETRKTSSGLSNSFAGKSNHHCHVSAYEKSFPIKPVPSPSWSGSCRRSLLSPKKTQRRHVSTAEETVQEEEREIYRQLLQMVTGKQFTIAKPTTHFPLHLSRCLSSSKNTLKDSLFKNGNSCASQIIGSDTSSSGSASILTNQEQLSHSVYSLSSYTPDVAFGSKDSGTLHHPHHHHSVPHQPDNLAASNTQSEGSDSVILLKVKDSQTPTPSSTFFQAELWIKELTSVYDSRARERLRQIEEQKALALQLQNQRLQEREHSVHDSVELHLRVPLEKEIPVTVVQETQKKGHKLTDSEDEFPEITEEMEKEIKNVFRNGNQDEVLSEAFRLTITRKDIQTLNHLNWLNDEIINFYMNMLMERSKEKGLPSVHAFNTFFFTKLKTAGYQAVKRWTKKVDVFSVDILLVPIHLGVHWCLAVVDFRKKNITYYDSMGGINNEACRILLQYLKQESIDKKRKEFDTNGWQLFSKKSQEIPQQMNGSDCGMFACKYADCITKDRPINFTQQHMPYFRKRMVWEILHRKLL
Method: To further determine whether SENP1 can directly deSUMOylate JAK2, in vitro deSUMOylation assays were performed by using purified recombinant His-JAK2 and GST-SENP1 proteins.
In vitro SUMOylation assay. The SUMOylation reactions were performed according to the manufacture's instruction (BML-UW8955-0001; ENZO). Briefly, 200 nM of purified HIS-JAK2 was suspended in reaction buffer (20 μl) containing Mg-ATP, SUMO E1, SUMO E2 and recombinant SUMOs. RanGAP1 (provided in the kit) was used as the substrate for positive control. The reaction was incubated at 37° C. for 60 minutes and terminated by using 20 μl of SDS loading buffer. […] The reactions were then subjected to Western blot to evaluate SUMOylation level.
Protein expression and purification. pET28a-JAK2 and its mutant was transformed in BL21 (DE3) E. coli cells by heat shot method at 42° C. and grown in Luria Broth (LB) at 37° C. E. coli cells were induced with 0.5 mM IPTG to induct protein expression. Cells were harvested by centrifugation at 5,000 g, 4° C. for 15 min and the pellet was resuspended in lysis buffer (20 mM Tris pH 7.9, 500 mM NaCl, 5 mM imidazole, 2 mM DTT and 1× protease inhibitor cocktail). Cells were then sonicated and centrifuged at 14,000 g, 4° C. for 15 min. 1 ml of Ni-NTA was added to the supernatant and incubated at 4° C. with end-to-end mixing for 2 hours and subjected to a column. The Ni-NTA resin was washed with 10 ml wash buffer (20 mM Tris pH 7.9, 250 mM NaCl, 15 mM Imidazole and 0.5 mM DTT) and eluted with 1 ml elution buffer (20 mM Tris pH 7.9, 250 mM NaCl and 1 M imidazole). The elute was then concentrated by using a protein concentrator (Thermo Scientific™ Pierce™) and resuspend in dialysis buffer (50 mM Tris pH 7.9, 50 mM NaCl, 2 mM DTT, and 10% glycerol). The purified protein was stored at −80° C. pGEX-4T1-SENP1 and its mutant were purified using following buffers: lysis buffer (1 mM DTT, and lx protease inhibitor cocktail, 800 mM NaCl, 5 mM EDTA, 50 mM Tris-pH8.0, 0.1% Triton x-100), wash buffer (800 mM NaCl, 5 mM EDTA, 50 mM Tris-pH8.0, 0.1% Triton x-100), elution buffer (40 mM glutathione, 800 mM NaCl, 5 mM EDTA, 50 mM Tris-pH8.0, 0.1% Triton x-100), dialysis buffer (50 mM Tris pH 7.9, 50 mM NaCl, 2 mM DTT, and 10% glycerol).

[2] = tested on: PEO4 cells; assay: Cell viability assay (SRB) in PEO4 cells; type: cell-based
Method: (§1) Cell culture and resistance cell line establishment. IGROV1 cells, U2OS (HTB-96; ATCC), HEK293T (CRL-11268; ATCC) and SKOV3 cells (HTB-77; ATCC) were cultured at 37° C. in DMEM with 10% Fetal Bovine Serum (FBS). PEO1 (10032308; Sigma-Aldrich), PEO4 (10032309; Sigma-Aldrich), PEO14 (10032311; Sigma-Aldrich) and PE023 cells (10032313; Sigma-Aldrich) were cultured at 37° C. in RPMI-1640 with 10% FBS. OV90 (CRL-11732; ATCC) was cultured in medium containing 1:1 MCDB 105 (Sigma) and M199 (Sigma) supplemented with 10% FBS at 37 ° C. All the cells were cultured at in a humidified incubator with 5% CO2 atmosphere. Cisplatin resistant cell lines, including SKOV3 CR, IGROV1 CR and OV90 CR, were generated using an approach similar to that reported in Zhou et al., (2018) Oncogene 37, 3981-3997, the disclosure of which is incorporated herein in its entirety.
(§2) Cell viability assay. Cells were seeded at 3,000 cells/well in 96-well plates were treated with drugs, followed by incubation for 48 hours, after which cell viability was detected using Sulforhodamine B (SRB) assay (64). Absorbance at 510 nm was detected using a SpectraMax Reader (Molecular Devices) and analyzed with SoftMax Analysis Software (Molecular Devices). Combinational index (CI) values were calculated using CompuSyn software.

[3] = tested on: PE023 cells; assay: Cell viability assay (SRB) in PE023 cells; type: cell-based
Method: as §1, §2

[4] = molecular target: T1, SENP1; assay: Cellular thermal shift assay; conditions: IGROV1 cells, higher temperature
Method: To determine whether UA binds to SENP1 directly, cellular thermal shift assays were performed in which a small molecule binds to a protein resulting in thermal stabilization of the protein.

[5] = recombinant GST-SENP1, 3 hours, read-out: IC50 to inhibit deSUMOylation of His-JAK2 in vitro

SMILES	IC50 ([1]; in vitro, read-out: SENP1 activity was inhibited with IC50) [µM]	IC50 [1, 5] [µM]	re-sensitization to cisplatin [2]	synergy with cisplatin (combination index) [2]	re-sensitization to cisplatin [3]	synergy with cisplatin (combination index) [3]	SENP1 protein thermal stabilization versus DMSO [4]	fold more potency to inhibit deSUMOylation of His-JAK2 in vitro than Mc ([1]; UA versus Mc) [fold]
CC1(C)CC[C@]2(C(=O)O)CC[C@]3(C)C(=CC[C@@H]4[C@@]5(C)CC[C@H](O[C@@H]6O[C@H](C(=O)O)[C@@H](O)[C@H](O[C@@H]7OC[C@@H](O)[C@H](O)[C@H]7O)[C@H]6O)C(C)(C)[C@@H]5CC[C@]43C)[C@@H]2C1 [Mc, Momordin Ic]	15.4	19.9	re-sensitized	synergy	re-sensitized	synergy		
C[C@H]1[C@H](C)CC[C@]2(C(=O)O)CC[C@]3(C)C(=CC[C@@H]4[C@@]5(C)CC[C@H](O)C(C)(C)[C@@H]5CC[C@]43C)[C@H]12 [UA, ursolic acid]		0.0064					stabilized	3000
